In patent US20250312352A1, “GLP-1R MODULATING COMPOUNDS” (Gilead Sciences, Inc., priority 2021, published 2025):

target: T1, GLP-1R (Homo sapiens, UniProt P43220); test: GLP-1R activation cAMP assay (Assay 1 or Assay 2); format: cell-based; conditions: cAMP increase in CHO cells stably expressing GLP-1R; compounds run on one of the two cAMP assays
T1 construct: host or cells: CHO cells
Description: GLP-1R ACTIVATION—cAMP Assay 1
GLP-1R activation by compounds of the present disclosure was quantified by measuring cAMP increase in CHO cells stably expressing GLP-1R (MultiSpan product #C1267-1a). The cells were harvested and plated in growth medium (DMEM/F-12 (Corning product #10-090-CV) supplemented with 10% FBS (HyClone product #SH30071-03), penicillin/streptomycin (Corning product #30-002CI) and 10 μg/ml puromycin (Gibco product #A11138-03)) at 1,000 cells/well in a 384-well plate (Greiner product #781080). The cells were then incubated overnight at 37° C., 5% CO2. The next day, the medium was removed and the cells were washed with DPBS (Corning product #21-031-CM) before adding the assay medium (HBSS, Corning product #21-023-CV) with 20 mM Hepes (Gibco product #15630-080) and 0.1% BSA (Rockland Immunochemicals product #BSA-1000)). Following the medium change, the cells were incubated for 1 hour at 37° C., 5% CO2. The tested GLP-1 compound was added to the cells in a 10-point dose response followed by a 30-minute incubation at 37° C., 5% CO2. cAMP concentration increase was then detected using Cisbio's cAMP Gs Dynamic Kit (product #62AM4PEC) according to the manufacturer's protocol. The response was plotted against the log of the agonist concentration and fitted to a sigmoidal equation to determine the EC50.
GLP-1R ACTIVATION—cAMP Assay 2
GLP-1R activation by small molecule agonists was quantified by measuring cAMP increase in CHO cells stably expressing GLP-1R (MultiSpan product #C1267-1a). 50 nL of agonists were pre-spotted in a 10-point dose response onto 384-well plate (Corning product #CL3826) using the Labcyte Echo System.

T1 sequence (P43220 24-463): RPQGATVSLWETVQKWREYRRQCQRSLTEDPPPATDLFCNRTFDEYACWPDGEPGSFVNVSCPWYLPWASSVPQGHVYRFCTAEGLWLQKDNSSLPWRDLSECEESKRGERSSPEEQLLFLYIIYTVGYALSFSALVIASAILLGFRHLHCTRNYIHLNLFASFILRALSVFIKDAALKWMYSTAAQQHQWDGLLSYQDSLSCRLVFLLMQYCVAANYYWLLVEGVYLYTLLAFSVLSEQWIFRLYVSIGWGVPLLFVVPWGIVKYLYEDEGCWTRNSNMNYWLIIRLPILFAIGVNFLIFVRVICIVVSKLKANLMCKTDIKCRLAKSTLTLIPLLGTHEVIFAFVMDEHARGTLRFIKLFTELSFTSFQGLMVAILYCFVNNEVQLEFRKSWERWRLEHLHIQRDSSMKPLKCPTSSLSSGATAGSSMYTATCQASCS

Row | EC50 | Compound
1 | 13.7 nM | O=C(O)c1ccc2nc(Cc3cc(F)c(-c4cccc(OCc5cn6cccnc6n5)n4)cc3F)n(C[C@@H]3CCO3)c2c1 [Example 29, (S)-2-(2,5-difluoro-4-(6-(imidazo[1,2-a]pyrimidin-2-ylmethoxy)pyridin-2-yl)benzyl)-1-(oxetan-2-ylmethyl)-1H-benzo[d]imidazole-6-carboxylic acid]
2 | 1.99 nM | O=C(O)c1ccc2nc(Cc3cc(F)c(-c4cccc(OCc5cn6ccccc6n5)n4)cc3F)n(C[C@@H]3CCO3)c2c1 [Example 30, (S)-2-(2,5-difluoro-4-(6-(imidazo[1,2-a]pyridin-2-ylmethoxy)pyridin-2-yl)benzyl)-1-(oxetan-2-ylmethyl)-1H-benzo[d]imidazole-6-carboxylic acid]
3 | 1.32 nM | N#Cc1ccc2nc(COc3cccc(-c4cc(F)c(Cc5nc6ccc(C(=O)O)cc6n5C[C@@H]5CCO5)cc4F)n3)cn2c1 [Example 31, (S)-2-(4-(6-((6-cyanoimidazo[1,2-a]pyridin-2-yl)methoxy)pyridin-2-yl)-2,5-difluorobenzyl)-1-(oxetan-2-ylmethyl)-1H-benzo[d]imidazole-6-carboxylic acid]
4 | 0.79 nM | O=C(O)c1ccc2nc(Cc3cc(F)c(-c4cccc(OCc5cn6cc(Cl)ccc6n5)n4)cc3F)n(C[C@@H]3CCO3)c2c1 [Example 32, (S)-2-(4-(6-((6-chloroimidazo[1,2-a]pyridin-2-yl)methoxy)pyridin-2-yl)-2,5-difluorobenzyl)-1-(oxetan-2-ylmethyl)-1H-benzo[d]imidazole-6-carboxylic acid]
5 | 1.75 nM | O=C(O)c1ccc2nc(Cc3cc(F)c(-c4cccc(OCc5cn6ccncc6n5)n4)cc3F)n(C[C@@H]3CCO3)c2c1 [Example 33, (S)-2-(2,5-difluoro-4-(6-(imidazo[1,2-a]pyrazin-2-ylmethoxy)pyridin-2-yl)benzyl)-1-(oxetan-2-ylmethyl)-1H-benzo[d]imidazole-6-carboxylic acid]
6 | 0.2 nM | O=C(O)c1ccc2nc(Cc3cc(F)c(-c4cccc(OCc5nc6ccccc6s5)n4)cc3F)n(C[C@@H]3CCO3)c2c1 [Example 34, (S)-2-(4-(6-(benzo[d]thiazol-2-ylmethoxy)pyridin-2-yl)-2,5-difluorobenzyl)-1-(oxetan-2-ylmethyl)-1H-benzo[d]imidazole-6-carboxylic acid]
7 | 0.6 nM | Cn1nc(COc2cccc(-c3cc(F)c(Cc4nc5ccc(C(=O)O)cc5n4C[C@@H]4CCO4)cc3F)n2)cc1Cl [Example 38, (S)-2-(4-(6-((5-chloro-1-methyl-1H-pyrazol-3-yl)methoxy)pyridin-2-yl)-2,5-difluorobenzyl)-1-(oxetan-2-ylmethyl)-1H-benzo[d]imidazole-6-carboxylic acid]

Second part, the compound before the results:

Row | Compound | EC50
8 | N#Cc1csc(COc2cccc(-c3cc(F)c(Cc4nc5ccc(C(=O)O)cc5n4C[C@@H]4CCO4)cc3F)n2)n1 [Example 23, (S)-2-(4-(6-((4-cyanothiazol-2-yl)methoxy)pyridin-2-yl)-2,5-difluorobenzyl)-1-(oxetan-2-ylmethyl)-1H-benzo[d]imidazole-6-carboxylic acid] | 1.43 nM
9 | O=C(O)c1ccc2nc(Cc3cc(F)c(-c4cccc(OCc5cc(C(F)(F)F)on5)n4)cc3F)n(C[C@@H]3CCO3)c2c1 [Example 24, (S)-2-(2,5-difluoro-4-(6-((5-(trifluoromethyl)isoxazol-3-yl)methoxy)pyridin-2-yl)benzyl)-1-(oxetan-2-ylmethyl)-1H-benzo[d]imidazole-6-carboxylic acid] | 1.54 nM
10 | O=C(O)c1ccc2nc(Cc3cc(F)c(-c4cccc(OCc5nnc(C(F)(F)F)s5)n4)cc3F)n(C[C@@H]3CCO3)c2c1 [Example 25, (S)-2-(2,5-difluoro-4-(6-((5-(trifluoromethyl)-1,3,4-thiadiazol-2-yl)methoxy)pyridin-2-yl)benzyl)-1-(oxetan-2-ylmethyl)-1H-benzo[d]imidazole-6-carboxylic acid] | 0.53 nM
11 | O=C(O)c1ccc2nc(Cc3cc(F)c(-c4cccc(OCc5nc6cccnc6s5)n4)cc3F)n(C[C@@H]3CCO3)c2c1 [Example 26, (S)-2-(2,5-difluoro-4-(6-(thiazolo[5,4-b]pyridin-2-ylmethoxy)pyridin-2-yl)benzyl)-1-(oxetan-2-ylmethyl)-1H-benzo[d]imidazole-6-carboxylic acid] | 0.23 nM
12 | Cc1nc(COc2cccc(-c3cc(F)c(Cc4nc5ccc(C(=O)O)cc5n4C[C@@H]4CCO4)cc3F)n2)sc1Br [Example 27, (S)-2-(4-(6-((5-bromo-4-methylthiazol-2-yl)methoxy)pyridin-2-yl)-2,5-difluorobenzyl)-1-(oxetan-2-ylmethyl)-1H-benzo[d]imidazole-6-carboxylic acid] | 0.08 nM
13 | O=C(O)c1ccc2nc(Cc3cc(F)c(-c4cccc(OCc5cc6ccccn6n5)n4)cc3F)n(C[C@@H]3CCO3)c2c1 [Example 28, (S)-2-(2,5-difluoro-4-(6-(pyrazolo[1,5-a]pyridin-2-ylmethoxy)pyridin-2-yl)benzyl)-1-(oxetan-2-ylmethyl)-1H-benzo[d]imidazole-6-carboxylic acid] | 0.44 nM
14 | O=C(O)c1ccc2nc(Cc3cc(F)c(-c4cccc(OCc5nc6cc(Cl)ccc6s5)n4)cc3F)n(C[C@@H]3CCO3)c2c1 [Example 35, (S)-2-(4-(6-((5-chlorobenzo[d]thiazol-2-yl)methoxy)pyridin-2-yl)-2,5-difluorobenzyl)-1-(oxetan-2-ylmethyl)-1H-benzo[d]imidazole-6-carboxylic acid] | 0.22 nM
15 | Cn1nccc1COc1cccc(-c2cc(F)c(Cc3nc4ccc(C(=O)O)cc4n3C[C@@H]3CCO3)cc2F)n1 [Example 36, (S)-2-(2,5-difluoro-4-(6-((1-methyl-1H-pyrazol-5-yl)methoxy)pyridin-2-yl)benzyl)-1-(oxetan-2-ylmethyl)-1H-benzo[d]imidazole-6-carboxylic acid] | 5.28 nM
16 | Cn1nc(COc2cccc(-c3cc(F)c(Cc4nc5ccc(C(=O)O)cc5n4C[C@@H]4CCO4)cc3F)n2)cc1CC#N [Example 37, (S)-2-(4-(6-((5-(cyanomethyl)-1-methyl-1H-pyrazol-3-yl)methoxy)pyridin-2-yl)-2,5-difluorobenzyl)-1-(oxetan-2-ylmethyl)-1H-benzo[d]imidazole-6-carboxylic acid] | 8.46 nM
17 | Cn1nc(COc2cccc(-c3cc(F)c(Cc4nc5ccc(C(=O)O)cc5n4C[C@@H]4CCO4)cc3F)n2)cc1C1CC1 [Example 39, (S)-2-(4-(6-((5-cyclopropyl-1-methyl-1H-pyrazol-3-yl)methoxy)pyridin-2-yl)-2,5-difluorobenzyl)-1-(oxetan-2-ylmethyl)-1H-benzo[d]imidazole-6-carboxylic acid] | 0.86 nM
18 | Cn1nc(COc2cccc(-c3cc(F)c(Cc4nc5ccc(C(=O)O)cc5n4C[C@@H]4CCO4)cc3F)n2)cc1C(F)F [Example 40, (S)-2-(4-(6-((5-(difluoromethyl)-1-methyl-1H-pyrazol-3-yl)methoxy)pyridin-2-yl)-2,5-difluorobenzyl)-1-(oxetan-2-ylmethyl)-1H-benzo[d]imidazole-6-carboxylic acid] | 0.83 nM
19 | COc1cc(C(=O)NC2(C#N)CC2)ncc1COc1cccc(-c2cc(F)c(Cc3nc4ccc(C(=O)O)cc4n3C[C@@H]3CCO3)cc2F)n1 [Example 41, (S)-2-(4-(6-((6-((1-cyanocyclopropyl)carbamoyl)-4-methoxypyridin-3-yl)methoxy)pyridin-2-yl)-2,5-difluorobenzyl)-1-(oxetan-2-ylmethyl)-1H-benzo[d]imidazole-6-carboxylic acid] | 0.17 nM
